Test results reported in patent US9133496B2, “Material for screening for compound acting on ion channel and use thereof” (priority 2010, dated 2015).

Columns and labels:
[1] = biological target: T1, Kir 2.1 channel (Homo sapiens, UniProt P63252); assay: Kir channel current in HEK-Kir cells, voltage clamp method; format: cell-based; conditions: 100 μM Ba ions, FIG. 2A
T1 construct: expressed in transfected cells
T1 sequence (P63252 1-427): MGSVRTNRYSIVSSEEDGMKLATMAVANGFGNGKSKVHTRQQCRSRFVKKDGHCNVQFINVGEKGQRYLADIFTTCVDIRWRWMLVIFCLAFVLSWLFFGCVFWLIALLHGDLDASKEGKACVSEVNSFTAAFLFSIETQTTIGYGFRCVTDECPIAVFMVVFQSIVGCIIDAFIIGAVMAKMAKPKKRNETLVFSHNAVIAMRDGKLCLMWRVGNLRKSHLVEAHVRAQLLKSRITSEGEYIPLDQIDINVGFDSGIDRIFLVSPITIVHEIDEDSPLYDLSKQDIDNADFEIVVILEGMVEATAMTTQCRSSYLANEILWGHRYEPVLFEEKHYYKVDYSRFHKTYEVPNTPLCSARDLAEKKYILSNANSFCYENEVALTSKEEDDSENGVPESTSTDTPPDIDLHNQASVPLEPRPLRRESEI
Description: (§1) Human-derived embryonic kidney cells (HEK293 cells) were purchased from the Health Sciences Research Resource Bank (HSRRB). 10% FBS (Gibco Corp.) was added thereto followed by culturing at 37° C. in 5% CO2 in D-MEM medium (Wako Pure Chemical Industries, Ltd.) containing 100 U/ml penicillin (Wako Pure Chemical Industries, Ltd.) and 100 μg/ml streptomycin (Meiji Seika Kaisha, Ltd.). pcDNA/Kir 2.1, obtained by subcloning human-derived Kir 2.1 (NM_00891.2) in pcDNA3.1(+) (Invitrogen Corp.), was inserted using Lipofectamine 2000 reagent (Invitrogen Corp.) followed by culturing in medium obtained by adding 0.2 mg/ml Zeocin (Invitrogen Corp.) to the above-mentioned D-MEM medium and then cloning Zeocin resistant cells to produce Kir 2.1 constantly expressing cells (HEK-Kir). In addition, the inactivated mutant Nav-QQQ (HEK-Kir-mutated Nay) was inserted into the Kir 2.1 constantly expressing cells using the same method followed by conducting experiments 24 to 72 hours later.
Kir channel current was measured by applying the voltage clamp method to HEK-Kir cells.

[2] = system: HEK-Kir cells; assay: Membrane potential of HEK-Kir cells, current clamp method; format: cell-based, human; conditions: 100 μM Ba ions, resting potential about −70 mV before, FIG. 2B
[3] = system: HEK-Kir-mutated Nav cells; assay: Cell death by electrical stimulation, MTT method, HEK-Kir-mutated Nav cells; format: cell-based, human; conditions: square wave 80 mA, 200 ms, three times at 3 min intervals, FIG. 6
Description: as §1, with “In addition, the inactivated mutant Nav-QQQ (HEK-Kir-mutated Nay) was inserted into the Kir 2.1 constantly expressing cells using the same method followed by conducting experiments 24 to 72 hours later.” left out
It was clearly determined from the results described in section 2 above that an extremely long action potential is generated in the mutant type Nav 1.5 channel. Since there is thought to be the possibility of cell death occurring when the action potential is generated by electrical stimulation, cell death attributable to electrical stimulation was measured. […] On the basis thereof, cell death was determined to occur in HEK-Kir-mutated Nav cells as a result of generating an extremely long action potential, while inhibition of Na ion channels blocked cell death.

[4] = system: HEK-Kir-mutated Nav cells; assay: DiBAC4(3) membrane potential fluorescence under high K+ stimulation in HEK-Kir-mutated Nav cells; format: cell-based, human; conditions: 1 mM lidocaine, extracellular K ion 5.9 mM to 15.3 mM, FIG. 17
Description: In the present example, a study was conducted on measurement of membrane potential using a membrane potential-sensitive dye in the form of DiBAC4(3), and using an extracellular solution containing K ions at a high concentration for depolarizing stimulation.
After loading two types of cells (HEK and HEK-Kir-mutated Nav cells) with 100 nM DiBAC4(3) (bis(1,3-dibutylbarbituric acid)trimethine oxanol) in normal HEPES buffer containing the dye for 30 minutes at room temperature, and fluorescence was measured at 520 nm or higher by exciting at 488 nm and reflecting with a dichroic mirror at 505 nm. In addition, high K^+ extracellular fluid having an increased K ion concentration was used as a stimulus to depolarize the cell membrane. This is because K ions are primarily involved in formation of resting membrane potential. […] In the present example, changes in fluorescence intensity of two types of cells were measured using this depolarizing stimulus. Furthermore, measurements were carried out based on a value of 1 for fluorescence intensity in the case of making the extracellular K ion concentration to be 140 mM K^+. The Argus/HiSCA high-speed, cooled CCD camera fluorescent imaging system (Hamamatsu Photonics K.K.) was used to measure fluorescence.

SMILES	inward Kir channel current [1]	resting membrane potential [2]	occurrence of cell death attributable to electrical stimulation [3]	changes in fluorescence caused by high K+ stimulation [4]
[Ba+2] [Ba ions]	inhibited	became shallow	–	–
CCN(CC)CC(=O)Nc1c(C)cccc1C [lidocaine]	–	–	inhibited	inhibited
